Measurements: PubChem BioAssay AID2060613 (Molecular Pharmacology Branch, DTP, NCI, 2025)

System: 233499-124-R-J3-PDC complex spheroid viability
Test: Anticancer human tumor 233499-124-R-J3-PDC patient-derived colon adenocarcinoma cell line growth inhibition [CLK]
Conditions: for IC50: curve of first compound; for viability, T/C: stronger effect = lower value
Summary of the method: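 Multi-cell-type spheroids combined patient-derived tumor cells with HUVEC endothelial cells and human mesenchymal stem cells. Paired agents were dosed in half-log steps down from about clinical Cmax, or from 10 microM where Cmax was unknown.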

[1] = second compound 0.0316 µM, first compound 0.0316 µM
[2] = second compound 0.0316 µM, first compound 0.1 µM
[3] = second compound 0.0316 µM, first compound 0.316 µM
[4] = second compound 0.0316 µM, first compound 1 µM
[5] = second compound 0.1 µM, first compound 0.0316 µM
[6] = second compound 0.1 µM, first compound 0.1 µM
[7] = second compound 0.1 µM, first compound 0.316 µM
[8] = second compound 0.1 µM, first compound 1 µM
[9] = second compound 0.316 µM, first compound 0.0316 µM
[10] = second compound 0.316 µM, first compound 0.1 µM
[11] = second compound 0.316 µM, first compound 0.316 µM
[12] = second compound 0.316 µM, first compound 1 µM
[13] = second compound 1 µM, first compound 0.0316 µM
[14] = second compound 1 µM, first compound 0.1 µM
[15] = second compound 1 µM, first compound 0.316 µM
[16] = second compound 1 µM, first compound 1 µM
[17] = second compound 3.16 µM, first compound 0.0316 µM
[18] = second compound 3.16 µM, first compound 0.1 µM
[19] = second compound 3.16 µM, first compound 0.316 µM
[20] = second compound 3.16 µM, first compound 1 µM
[21] = second compound 10 µM, first compound 0.0316 µM
[22] = second compound 10 µM, first compound 0.1 µM
[23] = second compound 10 µM, first compound 0.316 µM
[24] = second compound 10 µM, first compound 1 µM
[25] = second compound 0.0316 µM, first compound 3.16 µM
[26] = second compound 0.0316 µM, first compound 10 µM
[27] = second compound 0.1 µM, first compound 3.16 µM
[28] = second compound 0.1 µM, first compound 10 µM
[29] = second compound 0.316 µM, first compound 3.16 µM
[30] = second compound 0.316 µM, first compound 10 µM
[31] = second compound 1 µM, first compound 3.16 µM
[32] = second compound 1 µM, first compound 10 µM
[33] = second compound 3.16 µM, first compound 3.16 µM
[34] = second compound 3.16 µM, first compound 10 µM
[35] = second compound 10 µM, first compound 3.16 µM
[36] = second compound 10 µM, first compound 10 µM
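Further: spheroids exposed to the drug combinations for seven days.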
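Wherever viability, T/C is given: percent viability relative to DMSO vehicle control wells taken as 100%.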

## CCN1CCN(Cc2ccc(Nc3ncc(F)c(-c4cc(F)c5nc(C)n(C(C)C)c5c4)n3)nc2)CC1 + CN1CCN(c2cc(C(=O)Nc3cc4cc(-c5cnn(C)c5)ccc4cn3)ccn2)CC1
Second compound 0.0316 µM
  IC50: > 1000 nM
Second compound 0.1 µM
  IC50: > 1000 nM
Second compound 0.316 µM
  IC50: > 1000 nM
Second compound 1 µM
  IC50: < 3.16 nM
Second compound 3.16 µM
  IC50: < 3.16 nM
Second compound 10 µM
  IC50: < 3.16 nM
Second compound 0.0316 µM, first compound 0.00316 µM
  viability, T/C: 96.4%
Second compound 0.0316 µM, first compound 0.01 µM
  viability, T/C: 87.2%
[1]
  viability, T/C: 81.5%
[2]
  viability, T/C: 107%
[3]
  viability, T/C: 97.9%
[4]
  viability, T/C: 97.4%
Second compound 0.1 µM, first compound 0.00316 µM
  viability, T/C: 91.5%
Second compound 0.1 µM, first compound 0.01 µM
  viability, T/C: 114%
[5]
  viability, T/C: 83.1%
[6]
  viability, T/C: 90.5%
[7]
  viability, T/C: 93.1%
[8]
  viability, T/C: 93.1%
Second compound 0.316 µM, first compound 0.00316 µM
  viability, T/C: 92.7%
Second compound 0.316 µM, first compound 0.01 µM
  viability, T/C: 91.6%
[9]
  viability, T/C: 96.2%
[10]
  viability, T/C: 87.5%
[11]
  viability, T/C: 86.9%
[12]
  viability, T/C: 77.9%
Second compound 1 µM, first compound 0.00316 µM
  viability, T/C: 6.1%
Second compound 1 µM, first compound 0.01 µM
  viability, T/C: 0.82%
[13]
  viability, T/C: 1.32%
[14]
  viability, T/C: 4.68%
[15]
  viability, T/C: 6.35%
[16]
  viability, T/C: 2.16%
Second compound 3.16 µM, first compound 0.00316 µM
  viability, T/C: 0.75%
Second compound 3.16 µM, first compound 0.01 µM
  viability, T/C: 0.56%
[17]
  viability, T/C: 0.71%
[18]
  viability, T/C: 0.69%
[19]
  viability, T/C: 1.11%
[20]
  viability, T/C: 1.38%
Second compound 10 µM, first compound 0.00316 µM
  viability, T/C: 0.5%
Second compound 10 µM, first compound 0.01 µM
  viability, T/C: 0.56%
[21]
  viability, T/C: 1.04%
[22]
  viability, T/C: 0.52%
[23]
  viability, T/C: 0.59%
[24]
  viability, T/C: 0.61%

## CC(=O)O[C@H]1C(=O)[C@@]2(C)[C@H]([C@H](OC(=O)c3ccccc3)[C@]3(O)C[C@H](OC(=O)[C@H](O)[C@@H](NC(=O)c4ccccc4)c4ccccc4)C(C)=C1C3(C)C)[C@]1(OC(C)=O)CO[C@@H]1C[C@@H]2O + CNC(=O)c1ccc(Nc2nc(OC3CCCC3)c3c(-c4ccc5nc(C)oc5c4)c[nH]c3n2)c(OC)c1
Second compound 0.0316 µM
  IC50: 140 nM
Second compound 0.1 µM
  IC50: > 10000 nM
Second compound 0.316 µM
  IC50: > 10000 nM
Second compound 1 µM
  IC50: > 10000 nM
Second compound 3.16 µM
  IC50: > 10000 nM
Second compound 10 µM
  IC50: > 10000 nM
[1]
  viability, T/C: 80%
[2]
  viability, T/C: 59.4%
[3]
  viability, T/C: 18.2%
[4]
  viability, T/C: 21.5%
[25]
  viability, T/C: 31.4%
[26]
  viability, T/C: 37.7%
[5]
  viability, T/C: 81.2%
[6]
  viability, T/C: 66%
[7]
  viability, T/C: 50.7%
[8]
  viability, T/C: 78.5%
[27]
  viability, T/C: 72.9%
[28]
  viability, T/C: 66.5%
[9]
  viability, T/C: 67.9%
[10]
  viability, T/C: 81%
[11]
  viability, T/C: 84.8%
[12]
  viability, T/C: 90.6%
[29]
  viability, T/C: 78.8%
[30]
  viability, T/C: 68.4%
[13]
  viability, T/C: 91.2%
[14]
  viability, T/C: 85.9%
[15]
  viability, T/C: 77.5%
[16]
  viability, T/C: 72.5%
[31]
  viability, T/C: 96.3%
[32]
  viability, T/C: 66.7%
[17]
  viability, T/C: 77%
[18]
  viability, T/C: 87.8%
[19]
  viability, T/C: 89.5%
[20]
  viability, T/C: 90.5%
[33]
  viability, T/C: 83.3%
[34]
  viability, T/C: 74.2%
[21]
  viability, T/C: 67.5%
[22]
  viability, T/C: 82.3%
[23]
  viability, T/C: 79.1%
[24]
  viability, T/C: 79%
[35]
  viability, T/C: 81.1%
[36]
  viability, T/C: 85.8%

## COc1cccc2c1C(=O)c1c(O)c3c(c(O)c1C2=O)CC(O)(C(=O)CO)CC3OC1CC(N)C(O)C(C)O1 (stereo not drawn) + CNC(=O)c1ccc(Nc2nc(OC3CCCC3)c3c(-c4ccc5nc(C)oc5c4)c[nH]c3n2)c(OC)c1
Second compound 0.0316 µM
  IC50: 336 nM
Second compound 0.1 µM
  IC50: 286 nM
Second compound 0.316 µM
  IC50: 155 nM
Second compound 1 µM
  IC50: 142 nM
Second compound 3.16 µM
  IC50: 115 nM
Second compound 10 µM
  IC50: 79.9 nM
[1]
  viability, T/C: 92%
[2]
  viability, T/C: 85.1%
[3]
  viability, T/C: 38.5%
[4]
  viability, T/C: 38.5%
[25]
  viability, T/C: 13.5%
[26]
  viability, T/C: 6.81%
[5]
  viability, T/C: 71.3%
[6]
  viability, T/C: 71.7%
[7]
  viability, T/C: 40.7%
[8]
  viability, T/C: 34.2%
[27]
  viability, T/C: 17%
[28]
  viability, T/C: 2.92%
[9]
  viability, T/C: 61.7%
[10]
  viability, T/C: 62.1%
[11]
  viability, T/C: 33.8%
[12]
  viability, T/C: 13.8%
[29]
  viability, T/C: 4.56%
[30]
  viability, T/C: 1.31%
[13]
  viability, T/C: 51.1%
[14]
  viability, T/C: 75.6%
[15]
  viability, T/C: 19.3%
[16]
  viability, T/C: 1.71%
[31]
  viability, T/C: 1.27%
[32]
  viability, T/C: 0.38%
[17]
  viability, T/C: 55%
[18]
  viability, T/C: 53%
[19]
  viability, T/C: 27.4%
[20]
  viability, T/C: 1.95%
[33]
  viability, T/C: 0.8%
[34]
  viability, T/C: 0.35%
[21]
  viability, T/C: 56.1%
[22]
  viability, T/C: 48.5%
[23]
  viability, T/C: 11.7%
[24]
  viability, T/C: 0.74%
[35]
  viability, T/C: 0.74%
[36]
  viability, T/C: 0.32%

## C=CC(=O)Nc1cc(Nc2nccc(-c3cn(C)c4ccccc34)n2)c(OC)cc1N(C)CCN(C)C + CNC(=O)c1ccc(Nc2nc(OC3CCCC3)c3c(-c4ccc5nc(C)oc5c4)c[nH]c3n2)c(OC)c1
Second compound 0.0316 µM
  IC50: > 300 nM
Second compound 0.1 µM
  IC50: > 300 nM
Second compound 0.316 µM
  IC50: > 300 nM
Second compound 1 µM
  IC50: > 300 nM
Second compound 3.16 µM
  IC50: > 300 nM
Second compound 10 µM
  IC50: > 300 nM
Second compound 0.0316 µM, first compound 0.000949 µM
  viability, T/C: 70.1%
Second compound 0.0316 µM, first compound 0.003 µM
  viability, T/C: 97%
Second compound 0.0316 µM, first compound 0.00949 µM
  viability, T/C: 76.7%
Second compound 0.0316 µM, first compound 0.03 µM
  viability, T/C: 91%
Second compound 0.0316 µM, first compound 0.0949 µM
  viability, T/C: 94.9%
Second compound 0.0316 µM, first compound 0.3 µM
  viability, T/C: 71.8%
Second compound 0.1 µM, first compound 0.000949 µM
  viability, T/C: 69.8%
Second compound 0.1 µM, first compound 0.003 µM
  viability, T/C: 80.8%
Second compound 0.1 µM, first compound 0.00949 µM
  viability, T/C: 77.9%
Second compound 0.1 µM, first compound 0.03 µM
  viability, T/C: 74.8%
Second compound 0.1 µM, first compound 0.0949 µM
  viability, T/C: 81.5%
Second compound 0.1 µM, first compound 0.3 µM
  viability, T/C: 77.1%
Second compound 0.316 µM, first compound 0.000949 µM
  viability, T/C: 70%
Second compound 0.316 µM, first compound 0.003 µM
  viability, T/C: 86%
Second compound 0.316 µM, first compound 0.00949 µM
  viability, T/C: 69.2%
Second compound 0.316 µM, first compound 0.03 µM
  viability, T/C: 68.4%
Second compound 0.316 µM, first compound 0.0949 µM
  viability, T/C: 76.6%
Second compound 0.316 µM, first compound 0.3 µM
  viability, T/C: 78.3%
Second compound 1 µM, first compound 0.000949 µM
  viability, T/C: 78.7%
Second compound 1 µM, first compound 0.003 µM
  viability, T/C: 76.2%
Second compound 1 µM, first compound 0.00949 µM
  viability, T/C: 75.3%
Second compound 1 µM, first compound 0.03 µM
  viability, T/C: 82.5%
Second compound 1 µM, first compound 0.0949 µM
  viability, T/C: 69.9%
Second compound 1 µM, first compound 0.3 µM
  viability, T/C: 73.3%
Second compound 3.16 µM, first compound 0.000949 µM
  viability, T/C: 55.5%
Second compound 3.16 µM, first compound 0.003 µM
  viability, T/C: 71.3%
Second compound 3.16 µM, first compound 0.00949 µM
  viability, T/C: 81.4%
Second compound 3.16 µM, first compound 0.03 µM
  viability, T/C: 65.8%
Second compound 3.16 µM, first compound 0.0949 µM
  viability, T/C: 79.7%
Second compound 3.16 µM, first compound 0.3 µM
  viability, T/C: 67.7%
Second compound 10 µM, first compound 0.000949 µM
  viability, T/C: 73.5%
Second compound 10 µM, first compound 0.003 µM
  viability, T/C: 62.2%
Second compound 10 µM, first compound 0.00949 µM
  viability, T/C: 76.9%
Second compound 10 µM, first compound 0.03 µM
  viability, T/C: 74.8%
Second compound 10 µM, first compound 0.0949 µM
  viability, T/C: 69.6%
Second compound 10 µM, first compound 0.3 µM
  viability, T/C: 61.7%
